# From patent publication US8008288B2, “Anti-inflammatory A-aminocyclolactam compounds” (Cambridge Enterprise Limited, priority 2004, dated 2011)
# What was measured:
# [1] = test system: MCP-1 induced leukocyte migration (THP-1 cells); assay: Inhibition of chemokine (MCP-1) induced leukocyte migration in vitro, transwell assay; format: cell-based, human
# Method: In principle, this assay consists of two chambers separated by a porous membrane. The chemoattractant is placed in the lower compartment and the cells are placed in the upper compartment. After incubation for a period at 37° C. the cells move towards the chemoattractant, and the number of cells in the lower compartment is proportional to the chemoattractant activity (relative to a series of controls).
# This assay can be used with a range of different leukocyte populations. For example, freshly prepared human peripheral blood leukocytes may used. Alternatively, leukocyte subsets may be prepared, including polymorphonuclear cells or lymphocytes or monocytes using methods well known to those skilled in the art such as density gradient centrifugation or magnetic bead separations. Alternatively; immortal cell lines which have been extensively validated as models of human peripheral blood leukocytes may be used, including, but not limited to THP-1 cells as a model of monocytes or Jurkat cells as model of naïve T cells.
# The THP-1 cell line (European Cell culture Collection) were used as the leukocyte cell population.
# The following procedure is used for testing the invention compounds for MCP-1 induced leukocyte migration:
# First, the cell suspension to be placed in the upper compartment is prepared. […]
# [2] = format: in vitro ADME, human
# From the text: As an approach to identifying such stable analogs, various derivatives of (S)-3-(undec-10-enoyl)-aminoglutarimide have been tested for their stability in serum.
# [3] = cited from earlier work
molecule,measurement,setting,value
O=C1NCCCC[C@@H]1NC(=O)C12CC3CC(CC(C3)C1)C2 [(S)-3-(adamantane-1-carbonylamino)azepin-2-one],potency in vitro as broad-spectrum chemokine inhibitor (BSCI),[1]; in vitro,sub-nanomolar
C=CCCCCCCCCC(=O)[C@@H]1CCCNC1=O [(S)-3-(undec-10-enoyl)-tetrahydropyridin-2-one],stability in human serum,"[2]; human, 7 days",at least 7 days
same,potency compared with the parental molecule,[1]; parental molecule (S)-3-(undec-10-enoyl)-aminoglutarimide,considerably reduced potency
"C=CCCCCCCCCC(=O)N[C@H]1CCC(=O)NC1=O [NR58,4, (S)-3-(undec-10-enoyl)-aminoglutarimide]",enzymatic ring opening of the aminoglutarimide ring in serum,[2],susceptible to enzymatic ring opening in serum
c(DCys-DGln-DIle-DTrp-DLys-DGln-DLys-DPro-DAsp-DLeu-DCys)-NH2 [NR58-3.14.3],half-life period of clearance from blood plasma,[3]; after intravenous injection,less than 30 minutes
same,oral bioavailability,"[3]; in vivo, po",not orally bioavailable
